Data reported in patent US20120041172A1, “METHOD FOR THE MANUFACTURE OF DEGARELIX” (Polypeptide Laboratories A/S, priority 2009, published 2012).
Non-standard residues stand in square brackets, D forms with d. Residues, ends and D or L forms follow the SMILES beside them. *: point of attachment. dPhe(4-NHCONH2) = NC(=O)Nc1ccc(C[C@@H](N)C(=O)O)cc1; Dihydroorotyl(S) = O=C1C[C@@H](C(=O)*)NC(=O)N1; dPhe(4-Cl) = N[C@H](Cc1ccc(Cl)cc1)C(=O)O; Phe(4-NH2) = Nc1ccc(C[C@H](N)C(=O)O)cc1; d2Nal = N[C@H](Cc1ccc2ccccc2c1)C(=O)O; Lys(iPr) = CC(C)NCCCC[C@H](N)C(=O)O; d3Pal = N[C@H](Cc1cccnc1)C(=O)O

Key:
[1] = Instability of the hydroorotic moiety under basic conditions (DCHA in wet 2-BuOH); assay type: physicochemical; conditions: 67 mM in wet 2-BuOH with 167 mM (2.5 eq) DCHA, 31° C, after 25 h
Description: The following experiment provided further proof of the instability of the hydrooroic moiety under basic conditions. Z-Ser(tBu)-4Aph(Hor)-D-4Aph(tBu-Cbm)-Leu-OH.DCHA (67 mM) was dissolved in wet 2-BuOH with 167 mM (2.5 eq) DCHA at 31° C. After 25 h, 1.3% of the hydantoin analogue and 0.3% of the hydrolysed intermediate had been formed.

[2] = Stability of degarelix in DBU/DMF and piperidine/DMF (Fmoc-removal conditions), HPLC; assay type: physicochemical; conditions: 20 h
Description: Stability of degarelix in DBU/DMF and piperidine/DMF. The stability of degarelix was tested under conditions corresponding to those used for removal of the Fmoc-group during SPPS. The hydroorotic group in the side chain of 4Aph(Hor), amino acid residue no. 5 in the sequence of degarelix, is known to be sensitive to base and rearrange to a hydantoinacetyl group. All SPPS procedures known to the inventors had been based on Boc-chemistry.
Samples of degarelix were dissolved in 20% piperidine/DMF; 2% DBU in DMF, and 2% DBU+5% water in DMF; respectively. The samples were analysed by HPLC after 20 h and the amount of the hydantoin analogue determined.
If 5% water was present, too (simulating wet DMF), the amount was increased to 7%.

In the case of “Z-Ser(tBu)-4Aph(Hor)-D-4Aph(tBu-Cbm)-Leu-OH.DCHA”, the hydantoin analogue formed [1] is reported as 1.3% and the hydrolysed intermediate formed [1] is reported as 0.3%.

In the case of `CC(=O)N[C@H](Cc1ccc2ccccc2c1)C(=O)N[C@H](Cc1ccc(Cl)cc1)C(=O)N[C@H](Cc1cccnc1)C(=O)N[C@@H](CO)C(=O)N[C@@H](Cc1ccc(NC(=O)[C@@H]2CC(=O)NC(=O)N2)cc1)C(=O)N[C@H](Cc1ccc(NC(N)=O)cc1)C(=O)N[C@@H](CC(C)C)C(=O)N[C@@H](CCCCNC(C)C)C(=O)N1CCC[C@H]1C(=O)N[C@H](C)C(N)=O` [degarelix, Ac-D-2Nal-D-Phe(4Cl)-D-3 Pal-Ser-4Aph(Hor)-D-4Aph(Cbm)-Leu-ILys-Pro-D-Ala-NH2] (Ac-[d2Nal][dPhe(4-Cl)][d3Pal]S[Phe(4-NH2)](Dihydroorotyl(S))[dPhe(4-NHCONH2)]L[Lys(iPr)]P[dA]-NH2), the “amount of the hydantoin analogue formed” value ([2]; 2% DBU + 5% water in DMF (simulating wet DMF)) is reported as 7%, the “amount of the hydantoin analogue formed” value ([2]; 2% DBU in DMF) is reported as 1.8% and the “formation of the hydantoin analogue” value ([2]; 20% piperidine in DMF) is reported as “did not result in any formation of the hydantoin analogue”.
